What was measured:
[1] = compound: NC1(c2ccc(-c3nc4ccn5c(=O)[nH]nc5c4cc3-c3ccccc3)cc2)CCC1 [MK-2206]; conditions: max 10 µM
Method in brief: (§1)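 Cancer cell lines were seeded in 1536-well plates in 7.5 μl DMEM/F12 or RPMI with 10% FBS, held 24 hours at 37°C and 5% CO2, then dosed for 72 hours (final DMSO typically 0.2%). Viability was read by CellTiter-Glo 2.0 luminescence and scaled between blank-well and DMSO-well means. The single-agent IC50 comes from dose responses fitted to a two-parameter logistic curve with a non-linear mixed effects model.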

[2] = compound: CCN(CCO)CCCOc1ccc2c(Nc3cc(CC(=O)Nc4cccc(F)c4)[nH]n3)ncnc2c1 [AZD2811]; conditions: max 1 µM
Method in brief: as §1

[3] = compound: Cc1c2c(nn1C)CSCc1cc(n(C)n1)CSc1cc(c3ccccc3c1)OCCCc1c(C(=O)O)n(C)c3c-2c(Cl)ccc13 [AZD5991]; conditions: max 1 µM
Method in brief: as §1

[4] = compound: COc1cc2ncnc(Nc3ccc(F)c(Cl)c3)c2cc1OCCCN1CCOCC1 [Gefitinib]; conditions: max 10 µM
Method in brief: as §1

[5] = compound: COc1nnc2ccc(N3CCC(c4ccc(OCCN5CCN(C)C(=O)[C@H]5C)cc4)CC3)nn12 [AZD5153]; conditions: max 1 µM
Method in brief: as §1

[6] = compound: CCc1c2c(nc3ccc(O)cc13)-c1cc3c(c(=O)n1C2)COC(=O)[C@]3(O)CC [SN-38]; conditions: max 0.3 µM
Method in brief: as §1

[7] = compound: CS(=O)(=O)CCNCc1ccc(-c2ccc3ncnc(Nc4ccc(OCc5cccc(F)c5)c(Cl)c4)c3c2)o1 [Lapatinib]; conditions: max 10 µM
Method in brief: as §1

[8] = compound: COc1cccc(OCCCN)c1-c1cc(Nc2cnc(C#N)cn2)n[nH]1 [Prexasertib]; conditions: max 1 µM
Method in brief: as §1

[9] = compound: COc1cccc2c1C(=O)c1c(O)c3c(c(O)c1C2=O)C[C@@](O)(C(=O)CO)C[C@@H]3O[C@H]1C[C@H](N)[C@H](O)[C@H](C)O1 [Doxorubicin]; conditions: max 1 µM
Method in brief: as §1

[10] = compound: Cc1cc2ncnn2cc1Nc1ncc2c(n1)n(C1CCOCC1)c(=O)n2C [AZD7648]; conditions: max 10 µM
Method in brief: as §1

[11] = compound: CC1(C)CCC(CN2CCN(c3ccc(C(=O)NS(=O)(=O)c4ccc(NCC5CCOCC5)c([N+](=O)[O-])c4)c(Oc4cnc5[nH]ccc5c4)c3)CC2)=C(c2ccc(Cl)cc2)C1 [Venetoclax]; conditions: max 1 µM
Method in brief: as §1

[12] = compound: CC1=C(C(=CC=C1)Cl)NC(=O)C2=CN=C(S2)NC3=CC(=NC(=N3)C)N4CCN(CC4)CCO [Dasatinib]; conditions: max 2 µM
Method in brief: as §1

[13] = compound: C[C@@H](Oc1cc(-c2cnn(C3CCNCC3)c2)cnc1N)c1c(Cl)ccc(F)c1Cl [Crizotinib]; conditions: max 10 µM
Method in brief: as §1

[14] = compound: C1CN(CCC1(C(=O)N[C@@H](CCO)C2=CC=C(C=C2)Cl)N)C3=NC=NC4=C3C=CN4 [Capivasertib]; conditions: max 10 µM
Method in brief: as §1

[15] = compound: C[C@@H]1COCCN1C2=NC(=NC(=C2)C3(CC3)[S@](=N)(=O)C)C4=C5C=CNC5=NC=C4 [AZD6738]; conditions: max 10 µM
Method in brief: as §1

[16] = compound: Cc1nc(-c2cn3c(n2)-c2ccc(-c4cnn(C(C)(C)C(N)=O)c4)cc2OCC3)n(C(C)C)n1 [Taselisib]; conditions: max 10 µM
Method in brief: as §1

[17] = compound: CN(CC[C@H](CSC1=CC=CC=C1)NC2=C(C=C(C=C2)S(=O)(=O)NC(=O)C3=CC=C(C=C3)N4CCC(CC4)[C@H](C5=CC=CC=C5C6=CC=C(C=C6)Cl)O)S(=O)(=O)C(F)(F)F)CCO [AZD4320]; conditions: max 1 µM
Method in brief: as §1

[18] = compound: CN(C)CCCOc1ccc(-c2ccc3ncc4c(c3c2)n(C2CCOCC2)c(=O)n4C)cn1 [AZD0156]; conditions: max 3 µM
Method in brief: as §1

[19] = compound: C[C@@H](c1ccc2nccn2c1)n1nnc2ncc(-c3cnn(C)c3)nc21 [Savolitinib]; conditions: max 1 µM
Method in brief: as §1

[20] = compound: Cn1cnc2c(F)c(Nc3ccc(Br)cc3Cl)c(C(=O)NOCCO)cc21 [Selumetinib]; conditions: max 10 µM
Method in brief: as §1

[21] = compound: COc1cc(Nc2ncc3c(n2)-c2ccc(Cl)cc2C(c2c(F)cccc2OC)=NC3)ccc1C(=O)O [Alisertib]; conditions: max 10 µM
Method in brief: as §1

[22] = compound: CC1=CN2[C@@H](C1)C=NC3=CC(=C(C=C3C2=O)OC)OCCCCCOC4=C(C=C5C(=C4)N=C[C@@H]6CC(=CN6C5=O)C)OC [SG3199]; conditions: max 0.001 µM
Method in brief: as §1

[23] = compound: CC(C)n1c(=O)n(C)c2cnc3cc(F)c(-c4ccc(OCCCN5CCCCC5)nc4)cc3c21 [AZD1390]; conditions: max 0.3 µM
Method in brief: as §1

[24] = compound: CC(=O)Nc1cccc(-n2c(=O)n(C3CC3)c(=O)c3c(Nc4ccc(I)cc4F)n(C)c(=O)c(C)c32)c1 [Trametinib]; conditions: max 1 µM
Method in brief: as §1

[25] = compound: CC(=O)c1c(C)c2cnc(Nc3ccc(N4CCNCC4)cn3)nc2n(C2CCCC2)c1=O [Palbociclib]; conditions: max 10 µM
Method in brief: as §1

[26] = compound: C[C@@H](Nc1cc(F)cc(F)c1)c1cc(C(=O)N(C)C)cc2c(=O)cc(N3CCOCC3)oc12 [AZD8186]; conditions: max 3 µM
Method in brief: as §1

[27] = compound: C=CCn1c(=O)c2cnc(Nc3ccc(N4CCN(C)CC4)cc3)nc2n1-c1cccc(C(C)(C)O)n1 [AZD1775]; conditions: max 3 µM
Method in brief: as §1

[28] = compound: O=C(c1cc(Cc2n[nH]c(=O)c3ccccc23)ccc1F)N1CCN(C(=O)C2CC2)CC1 [Olaparib]; conditions: max 10 µM
Method in brief: as §1

Cell Line	IC50, cell viability 72 h [1]	IC50, cell viability 72 h [2]	IC50, cell viability 72 h [3]	IC50, cell viability 72 h [4]	IC50, cell viability 72 h [5]	IC50, cell viability 72 h [6]	IC50, cell viability 72 h [7]	IC50, cell viability 72 h [8]	IC50, cell viability 72 h [9]	IC50, cell viability 72 h [10]	IC50, cell viability 72 h [11]	IC50, cell viability 72 h [12]	IC50, cell viability 72 h [13]	IC50, cell viability 72 h [14]	IC50, cell viability 72 h [15]	IC50, cell viability 72 h [16]	IC50, cell viability 72 h [17]	IC50, cell viability 72 h [18]	IC50, cell viability 72 h [19]	IC50, cell viability 72 h [20]	IC50, cell viability 72 h [21]	IC50, cell viability 72 h [22]	IC50, cell viability 72 h [23]	IC50, cell viability 72 h [24]	IC50, cell viability 72 h [25]	IC50, cell viability 72 h [26]	IC50, cell viability 72 h [27]	IC50, cell viability 72 h [28]
TE-6 (Esophageal Squamous Cell Carcinoma)	6610 nM	> 1000 nM	940 nM	1750 nM	396 nM	> 300 nM	3400 nM	893 nM	> 1000 nM	> 10000 nM	> 1000 nM	> 2000 nM	> 10000 nM	2840 nM	9320 nM	245 nM	> 1000 nM	> 3000 nM	> 1000 nM	> 10000 nM	6000 nM	> 1 nM	> 300 nM	> 1000 nM	> 10000 nM	> 3000 nM	> 3000 nM	> 10000 nM
TOV-112D (Ovarian Carcinoma)	–	> 1000 nM	> 1000 nM	> 10000 nM	298 nM	8.03 nM	> 10000 nM	353 nM	262 nM	> 10000 nM	> 1000 nM	> 2000 nM	> 10000 nM	> 10000 nM	6940 nM	> 10000 nM	> 1000 nM	> 3000 nM	> 1000 nM	> 10000 nM	4320 nM	> 1 nM	> 300 nM	> 1000 nM	> 10000 nM	> 3000 nM	1260 nM	> 10000 nM
U251 (Low Grade Glioma)	> 10000 nM	> 1000 nM	> 1000 nM	> 10000 nM	> 1000 nM	13.1 nM	> 10000 nM	323 nM	> 1000 nM	> 10000 nM	> 1000 nM	> 2000 nM	> 10000 nM	> 10000 nM	> 10000 nM	> 10000 nM	> 1000 nM	> 3000 nM	> 1000 nM	> 10000 nM	> 10000 nM	> 1 nM	> 300 nM	> 1000 nM	> 10000 nM	> 3000 nM	> 3000 nM	> 10000 nM

Reference: the supplement of paper PMC11061612
